Data on 7 compounds can be found in patent US5444042A, “Method of treatment of neurodegeneration with calpain inhibitors” (Cortex Pharmaceuticals, priority 1994, dated 1995).

The structures appear in SMILES notation.

What is called Ki is a measure of affinity in units of concentration, obtained from inhibition or displacement.

Common to all, as to format: biochemical
Test [1] deals with Cathepsin B (Bos taurus, UniProt P07688). Briefly: Cathepsin B inhibition, Z-Arg-Arg-AFC (Table PKC1). Conditions: pH 6.0 phosphate buffer, substrate Z-Arg-Arg-AFC; read-out: Ki CB (Cathepsin B). A digest of the protocol:
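Enzyme added last to inhibitor (in DMSO) and Z-Arg-Arg-AFC in pH 6.0 phosphate buffer with 1.33 mM EDTA and 2.7 mM cysteine. AFC release followed fluorimetrically (ex 400 nm, em 505 nm) at various substrate and inhibitor concentrations; Ki from Dixon plot.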

Test [2] deals with T1, Calpain I from human erythrocytes (Homo sapiens, UniProt P07384).
T1 construct: Calpain I from human erythrocytes and calpain II from rabbit were assayed using Suc-Leu-Tyr-AMC; from tissue; host or cells: human erythrocytes
T1 sequence (P07384 1-714): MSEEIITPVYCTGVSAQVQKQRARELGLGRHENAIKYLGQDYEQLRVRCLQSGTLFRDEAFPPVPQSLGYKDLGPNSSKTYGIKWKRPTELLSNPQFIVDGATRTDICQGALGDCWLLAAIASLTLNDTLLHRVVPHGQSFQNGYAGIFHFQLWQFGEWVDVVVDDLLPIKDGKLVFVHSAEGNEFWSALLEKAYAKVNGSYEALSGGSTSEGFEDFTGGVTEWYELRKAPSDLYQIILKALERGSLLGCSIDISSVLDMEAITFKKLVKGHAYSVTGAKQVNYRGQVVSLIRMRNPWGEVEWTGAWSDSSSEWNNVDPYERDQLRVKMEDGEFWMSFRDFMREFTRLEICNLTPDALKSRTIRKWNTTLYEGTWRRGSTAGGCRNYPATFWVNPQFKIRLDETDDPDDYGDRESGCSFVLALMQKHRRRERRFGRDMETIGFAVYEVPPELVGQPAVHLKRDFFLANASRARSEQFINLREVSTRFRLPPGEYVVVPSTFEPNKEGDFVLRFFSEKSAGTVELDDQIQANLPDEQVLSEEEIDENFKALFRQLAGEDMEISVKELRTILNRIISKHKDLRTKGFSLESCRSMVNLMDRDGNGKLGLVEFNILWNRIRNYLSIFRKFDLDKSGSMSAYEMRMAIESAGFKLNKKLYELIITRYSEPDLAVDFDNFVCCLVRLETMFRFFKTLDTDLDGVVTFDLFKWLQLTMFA
T1 sequence (P04632 1-268 partner): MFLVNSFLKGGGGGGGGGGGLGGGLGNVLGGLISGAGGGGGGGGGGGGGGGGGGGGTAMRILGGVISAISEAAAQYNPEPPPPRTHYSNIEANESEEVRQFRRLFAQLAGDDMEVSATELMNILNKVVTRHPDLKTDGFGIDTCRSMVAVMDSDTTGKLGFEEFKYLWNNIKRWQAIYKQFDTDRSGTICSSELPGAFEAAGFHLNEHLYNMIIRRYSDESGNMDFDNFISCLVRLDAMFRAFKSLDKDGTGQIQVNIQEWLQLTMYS
Briefly: Calpain I inhibition, Suc-Leu-Tyr-AMC (Table PKC1). The settings on record: 20 mM Hepes, 10 mM CaCl2, 10 mM β-mercaptoethanol, pH 7.2; read-out: Ki CI (Calpain I). As to the method:
Our discovery of Peptide Keto-Compounds effective as Calpain Inhibitors was made through assay of the Peptide Keto-Compounds as reversible inhibitors. Various concentrations of inhibitors in dimethylsulfoxide (DMSO) were added to the assay mixture, which contained buffer and substrate. The reaction was started by the addition of the enzyme and the hydrolysis rates were followed spectrophotometrically or fluorimetrically. 88 mM KH2 PO4, 12 mM Na2 HPO4, 1.33 mM EDTA, 2.7 mM cysteine, pH 6.0 was used as a buffer for cathepsin B; and 20 mM Hepes, 10 mM CaCl2, 10 mM β-mercaptoethanol, pH 7.2 buffer was utilized for calpain I and calpain II.
All peptide thioester hydrolysis rates were measured with assay mixtures containing 4,4'-dithiodipyridine [e324=19800 M-1 cm-1; Grasetti & Murray, Arch. Biochem. Biophys. 119, pp 41-49 (1967)]. Papain was assayed with Bz-Arg-AMC or Bz-Arg-NA [Kanaoka et al., Chem. Pharm. Bull. 25, 3126-3128 (1977)], and the AMC (7-amino-4-methylcoumarin) release was followed fluorimetrically (excitation at 380 nm, and emission at 460 nm). Cathepsin B was assayed with Z-Arg-Arg-AFC [Barrett and Kirschke, Methods Enzymol. 80, 535-561 (1981)], and the AFC (7-amino-4-trifluoromethylcoumarin) release was followed fluorimetrically (excitation at 400 nm, and emission at 505 nm). Calpain I from human erythrocytes and calpain II from rabbit were assayed using Suc-Leu-Tyr-AMC [Sasaki et al., J. Biol. Chem. 259, 12489-12494 (1984), hereby incorporated by reference], and the AMC (7-amino-4-methylcoumarin) release was followed fluorimetrically (excitation at 380 nm, and emission at 460 nm). Enzymatic hydrolysis rates were measured at various substrate and inhibitor concentrations, and Ki values were determined by Dixon plot.

Test [3] concerns the target T2, Cathepsin B from bovine spleen (Bos taurus, UniProt P07688).
T2 construct: Cathepsin B from bovine spleen was assayed using Z-Lys-4-nitrophenylphosphate as substrate; from tissue; host or cells: bovine spleen
Put plainly: Cathepsin B Ki (Table 1B(i)). The settings on record: substrate Z-Lys-4-nitrophenylphosphate. As to the method:
The Peptide Keto-Compounds are reversible inhibitors of Calpains and other thiol proteases. […] Cathepsin B from bovine spleen was assayed using Z-Lys-4-nitrophenylphosphate as substrate.
The Ki value for the inhibition of Calpains and cathepsin B by several Peptide Keto-Compounds are shown in μM (micromolar). The values for leupeptin, which is commercially available from Calbiochem of La Jolla, Calif., are shown for comparison.

Turning to `CCC(NC(=O)[C@@H]1CCCN1C(=O)[C@H](C)NC(=O)[C@H](C)NC(=O)CCC(=O)OC)C(=O)C(=O)OC` (mixture of isomers) [MeO-Suc-Ala-Ala-Pro-Abu-COOMe, MeO-Suc-Ala-Ala-Pro-DL-Abu-CO2 Me], the Ki in test [1] was determined as 6 µM; in test [2], 100000 nM.

For the compound `CCOC(=O)C(=O)C(CC)NC(=O)[C@H](C)NC(=O)[C@H](C)NC(=O)OCc1ccccc1` (mixture of isomers) [Z-Ala-Ala-DL-Abu-COOEt, Z-Ala-Ala-DL-Abu-CO2 Et], the inhibitory constant (Ki) in test [1] was determined as 10 µM; in test [2], 50000 nM.

On to `CCOC(=O)C(=O)[C@H](CC)NC(=O)[C@H](CC(C)C)NC(=O)OCc1ccccc1` (racemic) [Z-Leu-Abu-COOEt, Z-Leu-DL-Abu-COOEt], for which the Ki in test [3] is 14 µM; in test [2] it was 40 nM.

Turning to `CCCC(NC(=O)[C@H](CC(C)C)NC(=O)OCc1ccccc1)C(=O)C(=O)OCC` (mixture of isomers) [Z-Leu-Nva-COOEt, Z-Leu-DL-Nva-COOEt], the Ki in test [3] and in test [1] was 30 µM each time.

In test [3], `CC(=O)N[C@@H](CC(C)C)C(=O)N[C@@H](CC(C)C)C(=O)N[C@H](C=O)CCCNC(=N)N` [Leupeptin, Ac-Leu-Leu-Arg-H, reference compound] showed a Ki of 6 µM.

With `CCCCC(NC(=O)C(CC(C)C)NC(=O)OCc1ccccc1)C(=O)C(=O)OCC` (stereo not drawn) [Z-Leu-Nle-COOEt, Z-Leu-NLeu-CO2 Et], the Ki amounted to 18 µM in test [3] and 120 nM in test [2].

As for `CCOC(=O)C(=O)C(Cc1ccccc1)NC(=O)C(CC(C)C)NC(=O)OCc1ccccc1` (stereo not drawn) [Z-Leu-Phe-COOEt], the Ki is more than 50 µM in test [3] and 230 nM in test [2].
